What was measured:
[1] = system: lung DCs; experiment: Activation of murine lung DCs: phagocytosis of Aspergillus conidia, costimulatory antigen expression, cytokine production; format: cell-based
Experimental: For mature PDCs, immature DCs were cultured with the trimeric human CD40 ligand as above and 10 ng/ml IL-3. […] The expression of HLA Class II, CD80 and CD86 was high in both immature and mature DCs. Murine lung CD 11c^+ DCs (between 5 to 7% positive for CD8alpha and between 30 to 35% positive for Gr-1) were isolated by magnetic cell sorting. For phagocytosis, DCs were pre-exposed to 100 ng/ml TA1 for 60 minutes and subsequently incubated at 37° C. with Aspergillus conidia for an additional 60 minutes. The percentage of internalization was calculated and photographs were taken. In assessing functional maturation and cytokine determination, purified DCs were resuspended in Iscove's medium (with no serum but with polymixin B, to avoid non-specific activation by serum components and endotoxin) and pulsed with 100 ng/ml TA1 for 24 hours either alone or together with TLR ligands or unopsonized Aspergillus conidia. Cell surface phenotype was assessed by reacting samples with FITC- or PE-conjugated rat anti-mouse antibodies. Unrelated hisotype matched antibodies were used as control. The levels of TNF-alpha, IL-10, IL-12 p70, IFN-alpha and IL-8 in culture supernatants were determined by Kit ELISAs. The detection limits (pg/ml) of the assays were <3 (human) and <32 (murine) for TNF-alpha, <12 (murine) and <5 (human) for IL-10, <16 (murine) and <3 (human) for IL-12 p70 and <25 (human) IL-8. For human IFN-alpha <3 ng/ml. For enumeration of cytokine-producing cells, an ELISPOT assay was used on purified CD4^+ T cells and DCs from lungs.

[2] = system: murine DCs; experiment: RT-PCR of TLR expression on DCs; format: cell-based
Experimental: Synthesis and PCR of cDNA were performed with forward and reverse PCR primers and the cycles used for murine and human TLRs and HPRT. The synthesized PCR products were separated by electrophoresis on 2% agarose gel and visualized by ethidium bromide staining.

[3] = biological target: T1, TLR4/CD14 (Homo sapiens, UniProt O00206); experiment: IL-8 production by TLR4/CD14-transfected HEK293 cells; format: cell-based
T1 construct: expressed in transfected cells; host or cells: HEK293
Experimental: The human embryonic kidney cell line HEK293, wild type or stably transfected with human TLR2, TLR9 and TLR4/CD1427 were cultured in low glucose Dulbecco's modified Eagle's medium supplemented with 10% FCS, HEPES ([…]), L-glutamine ([…]), and gentamycin (50 microgram/ml). Transfectants were additionally supplemented with puromycin (100 microgram/ml). For stimulation experiments, cells were cultured at a density of 3 to 5×10^5 cells/wells in 12-well tissue culture plates overnight. Cells were washed and stimulated with 100 ng/ml TA1 either alone or together with TLR ligands for 5 h before the assessment of IL-8 production in the supernatants.
The levels of TNF-alpha, IL-10, IL-12 p70, IFN-alpha and IL-8 in culture supernatants were determined by Kit ELISAs. The detection limits (pg/ml) of the assays were <3 (human) and <32 (murine) for TNF-alpha, <12 (murine) and <5 (human) for IL-10, <16 (murine) and <3 (human) for IL-12 p70 and <25 (human) IL-8. For human IFN-alpha <3 ng/ml. For enumeration of cytokine-producing cells, an ELISPOT assay was used on purified CD4^+ T cells and DCs from lungs.

[4] = system: p38 and NF-kB; experiment: Analysis of p38 and NF-kB activation on lung DCs; format: cell-based, murine; conditions: peptide alone, 20 minutes
Experimental: P38 and NF-kB were activated on lung DCs by exposure for 20 minutes at 37° C. to Aspergillus conidia and/or 100 ng/ml TA1. Blots of cell lysates were incubated with rabbit polyclonal Abs recognizing either the unphosphorylated form of p38 MAPK, or the double-phosphorylated (Thr-180/Tyr-182) p38 MAPK, or Abs specific for the Rel A, 65 kDa DNA binding subunit of human NF-kB followed by horseradish peroxidase-conjugated goat anti-rabbit IgG, as per manufacturer's instructions. Blots were developed with an Enhanced Chemiluminescence detection kit. Bands were visualized after exposure of the blots to a Kodak RX film. To ensure similar protein loading in each lane, the phospho blots were stripped and the membranes were reprobed with Abs against p38 and NF-kB.

[5] = system: A. fumigatus; experiment: Local fungal growth after Aspergillus infection of TLR2-, TLR9- or MyD88-deficient mice; format: in vivo
Description: Female, 8- to 10-weeks old, BALB/c and C57BL6 mice were from Charles River. NOD/SCID were from The Jackson. Breeding pairs of homozygous TLR2-, TLR9- and MyD88-deficient mice, raised on C57BL6 background, and of homozygous IFN-gamma- and IL-4-deficient mice, raised on BALB/c background, were bred under specific-pathogen free conditions.
For infection with A. fumigatus, mice were intranasally injected for 3 consecutive days with a suspension of 2×10^7 conidia/20 microliter saline. For the quantification of fungal growth in the lungs, the chitin assay was used. The chitin content was expressed as micrograms of glucosamine per organ. The glucosamine content of lungs from uninfected mice was used as a negative control ranging between 0.80 and 2.25 microgram glucosamine/organ. For histological analysis, lungs were excised and immediately fixed in formalin. Sections (3 to 4 micron) of paraffin-embedded tissues were stained with the periodic acid-Schiff procedure. Thymosin alpha 1 (TA1) and the scrambled polypeptide are as purified sterile lyophilized acetylated polypeptides with endotoxin levels less than 0.03 pg/ml, by a standard limulus lysate assay. The sequences were as follows: Ac-[…]O (Thymosin alpha 1, SEQ ID NO.: 1) and Ac-[…]OH ([…]). Their lyophilized powders were reconstituted in sterile water.
The treatments were as follows; in BMT-mice, TA1, at different doses administered intraperitoneally, sthymosin alpha 1, 400 microgram/kg administered intraperitoneally or human recombinant G-CSF 250 microgram/kg administered intravenously, were given daily beginning the day of the BM infusion, in concomitance with the infection and continuing for an additional 3 days. Amphotericin B was given daily for 3 days in concomitance with the infection, at a dose of 4000 microgram/kg, administered intraperitoneally. This dose would cure IA in cyclophosphamide-treated mice. Cyclophosphamide, 150 mg/kg administered intraperitoneally, was given a day before the infection. […]

[6] = system: Aspergillus conidia; experiment: Antifungal effector activity (conidiocidal activity) of macrophages and neutrophils; format: cell-based; conditions: TA1 treated mice
Experimental: […] In addition, the conidiocidal activity was assessed by determining the number of colony forming units and the percentage of colony forming units inhibition (mean±SE), referred to as conidiocidal activity.

[7] = combined exposure to Aspergillus conidia and TA1
[8] = combined exposure to conidia and peptide

T1 sequence (O00206 24-839): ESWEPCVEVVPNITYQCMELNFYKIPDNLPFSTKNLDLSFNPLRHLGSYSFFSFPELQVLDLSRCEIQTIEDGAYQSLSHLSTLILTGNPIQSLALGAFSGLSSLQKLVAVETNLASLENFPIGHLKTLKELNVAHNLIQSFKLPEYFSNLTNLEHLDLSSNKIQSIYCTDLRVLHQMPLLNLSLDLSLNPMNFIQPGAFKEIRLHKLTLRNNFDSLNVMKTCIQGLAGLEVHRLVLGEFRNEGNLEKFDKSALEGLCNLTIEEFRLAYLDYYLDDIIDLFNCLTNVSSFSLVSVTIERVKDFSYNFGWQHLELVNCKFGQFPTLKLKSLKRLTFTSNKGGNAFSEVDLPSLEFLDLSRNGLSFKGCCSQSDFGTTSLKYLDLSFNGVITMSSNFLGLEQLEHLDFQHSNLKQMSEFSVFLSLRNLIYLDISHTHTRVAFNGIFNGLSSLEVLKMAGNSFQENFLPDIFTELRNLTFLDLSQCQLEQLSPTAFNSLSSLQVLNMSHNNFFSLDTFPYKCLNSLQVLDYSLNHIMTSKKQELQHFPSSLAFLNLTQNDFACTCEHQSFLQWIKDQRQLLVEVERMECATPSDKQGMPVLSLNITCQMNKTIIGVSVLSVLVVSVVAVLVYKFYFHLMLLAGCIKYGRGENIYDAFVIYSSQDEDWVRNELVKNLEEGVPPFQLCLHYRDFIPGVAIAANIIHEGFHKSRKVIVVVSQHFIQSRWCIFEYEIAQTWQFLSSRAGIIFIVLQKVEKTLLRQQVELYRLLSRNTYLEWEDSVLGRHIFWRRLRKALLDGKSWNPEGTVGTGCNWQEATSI

For “Ac-Ser-Asp-Ala-Ala-Val-Asp-Thr-Ser-Ser-Glu-Ile-Thr-Thr-Lys-Asp-Leu-Lys-Glu-Lys-Lys-Glu-Val-Glu-Glu-Ala-Glu-Asn-O (Ac-SDAAVDTSSEITTKDLKEKKEVEEAEN-OH) [TA1, naturally occurring thymic peptide]”, the “activation of lung DCs for phagocytosis of unopsonized conidia, costimulatory antigen expression and cytokine production” value ([1]; 100 ng/ml) was “activates”, the “expression of MHC Class II antigens, CD86 and CD40 molecules” value [1, 7] was “remarkably increased” and the “frequency of IL-12 p70-producing DCs” value [1, 7] was “remarkably increased”. The “frequency of IL-12 p70-producing DCs” value ([1]; thymosin alone) was “also increased”, the “expression of TLR5” value ([2]; combined exposure to conidia and TA1) was “inhibited” and the “expression of TLR2” value [2, 8] was “still activated”. The “expression of TLR9” value [2, 8] was “still activated”, the “expression of TLR2” value ([2]; peptide alone) was “strongly activates” and the “expression of TLR5” value ([2]; peptide alone) was “strongly activates”. The “expression of TLR9” value ([2]; peptide alone) was “strongly activates”, the “production of IL-8” value ([3]; TA1 alone) was “did not induce” and the “production of IL-8” value ([3]; in response to the TLR4 ligand LPS) was “did not induce”. The p38 phosphorylation [4] was “induced”, the fungal growth ([5]; MyD88-deficient mice) was “not impaired” and the fungal growth ([5]; TLR2-deficient mice) was “similarly impaired”. For the same substance, the fungal growth ([5]; TLR9-deficient mice) was “similarly impaired”, the “conidiocidal activity of macrophages” value [6] was “higher” and the “conidiocidal activity of neutrophils” value [6] was “higher”.

From patent publication US8389680B2, “Treatment of Aspergillus infections with alpha thymosin peptides” (SciClone Pharmaceuticals, Inc., priority 2003, dated 2013)
